36 molecules from ChEMBL document CHEMBL1139124, “Oxazolidinones as novel human CCR8 antagonists” (Bioorg Med Chem Lett, 2007) can be followed below.

By IC50 is commonly meant the midpoint of a concentration-inhibition curve. By bioavailability is commonly meant dose-corrected exposure relative to a reference, in per cent. Low values mean little systemic uptake, high ones much systemic uptake. In general, half-life refers to how long it takes for the measured level to halve.

Each structure is given as a SMILES string. Calls of active or inactive are those of the source. The rule behind the calls is not given here.

Series [1] has as its target C-C chemokine receptor type 8 (Homo sapiens, UniProt P51685). Kind of series: Antagonist activity at human recombinant CCR8 expressed in RBL cells assessed as inhibition of I-309-induced intracellular calcium mobilization by FLIPR assay. It is filed as functional, cell-based. A general note: Calcium flux is commonly read through the fluorescence of an indicator in the cells.

Series [2] has as its system Liver microsomes. The series is described as follows: Intrinsic clearance in human liver microsome. The class given is ADME. For orientation: Microsomes from liver hold many membrane-bound enzymes, among them those of drug oxidation.
For series [3], the system named is Liver microsomes. Kind of series: Intrinsic clearance in rat liver microsome. The class given is ADME.
Series [4] in a line: Volume of distribution at steady state in mouse at 1 mg/kg, iv or 2 mg/kg, po. The class given is ADME, organism-based. Conditions: in vivo, read-out: Vdss.
Series [5] in a line: Oral bioavailability in mouse at 2 mg/kg. It is filed as ADME, organism-based. Conditions: in vivo.
Series [6] in a line: Clearance in mouse blood at 1 mg/kg, iv or 2 mg/kg, po. The class given is ADME, organism-based.
The nature of series [7]: Half life in mouse at 1 mg/kg, iv or 2 mg/kg, po. It is filed as ADME, organism-based. As to conditions: in vivo.
For series [8], the species on record is Homo sapiens. Kind of series: Selectivity for hERG over CCR8. In general terms: The hERG channel carries a current that helps repolarise heart muscle cells.
For series [9], the target named is T1, C-C chemokine receptor type 8 (Mus musculus) (UniProt P56484).
T1 sequence (whole entry): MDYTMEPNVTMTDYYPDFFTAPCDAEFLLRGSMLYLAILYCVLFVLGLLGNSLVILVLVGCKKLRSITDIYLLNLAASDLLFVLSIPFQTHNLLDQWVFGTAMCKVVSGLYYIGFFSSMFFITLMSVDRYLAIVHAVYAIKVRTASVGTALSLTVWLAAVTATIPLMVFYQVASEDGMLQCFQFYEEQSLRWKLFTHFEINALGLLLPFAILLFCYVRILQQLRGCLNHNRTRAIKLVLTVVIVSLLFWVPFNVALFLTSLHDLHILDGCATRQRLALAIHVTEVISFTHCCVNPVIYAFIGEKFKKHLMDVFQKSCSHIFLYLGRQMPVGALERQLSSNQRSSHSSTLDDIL
The series is described as follows: Antagonist activity at mouse CCR8 by FLIPR assay. The class given is functional.

For series [10], the species on record is Rattus norvegicus. The series is described as follows: Antagonist activity at rat CCR8 by FLIPR assay. The class given is functional.
For series [11], the species on record is Cavia porcellus. Kind of series: Antagonist activity at guinea pig CCR8 by FLIPR assay. The class given is functional.
Series [12] deals with Voltage-gated inwardly rectifying potassium channel KCNH2 (Homo sapiens, UniProt Q12809). Kind of series: Inhibition of hERG. The class given is toxicity.
Sequence of Voltage-gated inwardly rectifying potassium channel KCNH2 (Q12809 whole entry): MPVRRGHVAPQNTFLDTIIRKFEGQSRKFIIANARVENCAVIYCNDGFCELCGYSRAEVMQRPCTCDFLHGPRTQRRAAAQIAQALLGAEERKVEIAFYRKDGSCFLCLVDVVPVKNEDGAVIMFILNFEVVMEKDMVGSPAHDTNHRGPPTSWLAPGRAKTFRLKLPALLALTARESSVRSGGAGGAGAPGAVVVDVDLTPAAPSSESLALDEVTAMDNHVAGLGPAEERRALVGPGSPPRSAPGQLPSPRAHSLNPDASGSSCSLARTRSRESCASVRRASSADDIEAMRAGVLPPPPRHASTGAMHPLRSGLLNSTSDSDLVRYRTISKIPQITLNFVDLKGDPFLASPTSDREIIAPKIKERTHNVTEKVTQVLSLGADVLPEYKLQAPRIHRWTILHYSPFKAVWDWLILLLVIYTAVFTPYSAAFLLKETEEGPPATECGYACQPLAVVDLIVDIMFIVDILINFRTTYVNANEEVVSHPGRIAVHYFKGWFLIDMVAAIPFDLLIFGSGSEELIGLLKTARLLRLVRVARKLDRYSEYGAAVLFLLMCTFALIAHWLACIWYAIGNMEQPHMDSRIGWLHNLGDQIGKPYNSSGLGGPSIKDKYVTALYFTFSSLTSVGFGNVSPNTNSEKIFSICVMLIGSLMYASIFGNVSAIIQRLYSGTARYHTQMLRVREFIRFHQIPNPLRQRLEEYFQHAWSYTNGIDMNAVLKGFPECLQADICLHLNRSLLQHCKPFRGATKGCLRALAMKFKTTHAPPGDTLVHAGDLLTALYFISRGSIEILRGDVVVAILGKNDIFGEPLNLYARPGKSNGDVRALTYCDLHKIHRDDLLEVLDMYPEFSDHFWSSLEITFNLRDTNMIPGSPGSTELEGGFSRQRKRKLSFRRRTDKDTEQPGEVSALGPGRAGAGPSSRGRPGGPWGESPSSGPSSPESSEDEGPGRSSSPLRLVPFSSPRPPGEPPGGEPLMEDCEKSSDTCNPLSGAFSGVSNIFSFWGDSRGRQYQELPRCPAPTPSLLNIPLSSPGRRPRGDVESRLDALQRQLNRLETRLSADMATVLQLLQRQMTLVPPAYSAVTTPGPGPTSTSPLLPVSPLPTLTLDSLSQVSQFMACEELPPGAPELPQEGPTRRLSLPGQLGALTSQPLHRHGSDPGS

Sequence of C-C chemokine receptor type 8 (P51685 whole entry): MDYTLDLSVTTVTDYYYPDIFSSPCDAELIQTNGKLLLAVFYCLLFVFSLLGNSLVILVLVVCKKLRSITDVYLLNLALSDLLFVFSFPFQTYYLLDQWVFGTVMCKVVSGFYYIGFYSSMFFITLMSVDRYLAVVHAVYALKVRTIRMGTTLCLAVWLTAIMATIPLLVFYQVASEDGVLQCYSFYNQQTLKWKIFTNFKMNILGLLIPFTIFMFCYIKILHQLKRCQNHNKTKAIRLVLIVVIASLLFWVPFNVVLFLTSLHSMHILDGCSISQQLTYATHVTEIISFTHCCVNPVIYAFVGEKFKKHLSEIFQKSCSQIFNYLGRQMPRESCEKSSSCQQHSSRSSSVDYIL

Regarding `COc1ccc2nccc(C3CN(C4CCN(Cc5c[nH]c6ccccc56)CC4)C(=O)O3)c2c1` (centres undefined), in series [1], the IC50 is over 50100 nM. Take `COc1ccc2nccc(C3CN(C4CCN(Cc5cc6ccccc6n5C)CC4)C(=O)O3)c2c1` (centres undefined): the IC50 in series [1] is 3160 nM.

`COc1ccc2nccc(C3CN(C4CCN(CC5CCCCC5)CC4)C(=O)O3)c2c1` (centres undefined): in series [1], the IC50 was 7940 nM. In the case of `O=C1OC(c2ccc3ccccc3n2)CN1C1CCN(Cc2cc3ccccc3[nH]2)CC1` (centres undefined), the IC50 in [1] was over 50100 nM. Same read-out and setting: with `COc1ccc2nccc(C3CN(C4CCN(Cc5ccccc5)CC4)C(=O)O3)c2c1` (centres undefined) the figure was 12600 nM; with `COc1ccc2nccc(C3CN(C4CCN(Cc5ccc(Br)cc5)CC4)C(=O)O3)c2c1` (centres undefined), 50.1 nM; with `COc1ccc2nccc(C3CN(C4CCN(Cc5ccc6ccccc6n5)CC4)C(=O)O3)c2c1` (centres undefined), 3160 nM. Same read-out and setting: the value for `COc1ccc2nccc(C3CN(C4CCN(C)CC4)C(=O)O3)c2c1` (centres undefined) was over 50100 nM. The same measure, in the same setting: the value for `O=C1OC(c2ccncc2)CN1C1CCN(Cc2cc3ccccc3[nH]2)CC1` (centres undefined) was over 50100 nM; that for `COc1ccc2nccc(C3CN(C4CCN(Cc5cc6ccccc6[nH]5)CC4)C(=O)O3)c2c1` (centres undefined) was 25.1 nM; that for `CCCCCCN1CCC(N2CC(c3ccnc4ccc(OC)cc34)OC2=O)CC1` (centres undefined) was 501 nM. Consider `COc1ccc2nccc(C3CN(C4CCN(Cc5ccccc5Cl)CC4)C(=O)O3)c2c1` (centres undefined), for which the IC50 in series [1] is over 50100 nM.

For the molecule `COc1ccc2nccc(C3CN(C4CCN(CCCc5ccccc5)CC4)C(=O)O3)c2c1` (centres undefined), the IC50 in [1] was 251 nM. Same read-out and setting: with `COc1ccc2nccc(C3CN(C4CCN(Cc5cccc(Cl)c5)CC4)C(=O)O3)c2c1` (centres undefined) the figure was 6310 nM; with `COc1ccc2nccc(C3CN(C4CCN(Cc5ccc6ccccc6c5)CC4)C(=O)O3)c2c1` (centres undefined), 1260 nM; with `COc1ccc2nccc(C3CN(CC4CCCN(Cc5cc6ccccc6[nH]5)C4)C(=O)O3)c2c1` (centres undefined), over 50100 nM. Consider `COc1ccc2nccc(C3CN(CC4CCN(Cc5cc6ccccc6[nH]5)CC4)C(=O)O3)c2c1` (centres undefined), for which the IC50 in series [1] is over 50100 nM. `COc1ccc(CN2CCC(N3CC(c4ccnc5ccc(OC)cc45)OC3=O)CC2)cc1` (centres undefined): the IC50 in series [1] was 1260 nM. On the same count and under the same terms, with `COc1ccc2nccc(C3CN(C4CCN(S(=O)(=O)c5ccc(Cl)c(Cl)c5)CC4)C(=O)O3)c2c1` (centres undefined) the figure was over 50100 nM. Same read-out and setting: with `COc1ccc2nccc(C3CN(C4CCN(Cc5cc6ccccc6o5)CC4)C(=O)O3)c2c1` (centres undefined) the figure was 1260 nM; with `COc1ccc2nccc(C3CN(C4CCN(C(=O)c5ccc(Cl)c(Cl)c5)CC4)C(=O)O3)c2c1` (centres undefined), 6310 nM. Same read-out and setting: with `COc1ccc2nccc(C3CN(CCCNCc4cc5ccccc5[nH]4)C(=O)O3)c2c1` (centres undefined) the figure was 1580 nM.

In the case of `COc1ccc2nccc(C3CN(C4CCN(Cc5cc6ccccc6s5)CC4)C(=O)O3)c2c1` (centres undefined), the IC50 in [1] was 794 nM. On the same count and under the same terms, with `COc1ccc2nccc(C3CN(C4CCN(Cc5ccc(C#N)cc5)CC4)C(=O)O3)c2c1` (centres undefined) the figure was 12600 nM. Consider `COc1ccc2nccc([C@@H]3CN(C4CCN(Cc5cc6ccccc6[nH]5)CC4)C(=O)O3)c2c1`, for which the CL in series [2] and in series [3] was 7 mL/min/g each time. Further, the Vd in series [4] came to 2.4 L/kg. In series [5], this molecule returned a bioavailability of 18%. Moreover, in [6], the clearance worked out at 38 mL/min/kg. The molecule further showed a half-life in [7] of 1 h. The Selectivity ratio in series [8] is 79. The IC50 in series [1] is 20 nM; in [12] it was 1580 nM. Besides, the result in series [9], in series [10] and in series [11] was inactive. Consider `O=C1OC(c2cnc3ccccc3c2)CN1C1CCN(Cc2cc3ccccc3[nH]2)CC1` (centres undefined), for which the IC50 in series [1] was over 50100 nM. In the case of `COc1ccc2nccc(C3CN(C4CCN(Cc5cc6ccccc6[nH]5)CC4)C(=O)O3)c2n1` (centres undefined), in series [1], the IC50 is 31.6 nM. Still for that read-out and setting: the value for `COc1ccc2nccc(C3CN(C4CCCCN(Cc5cc6ccccc6[nH]5)C4)C(=O)O3)c2c1` (centres undefined) was over 50100 nM; that for `COc1ccc2nccc(C3CN(CCCN(C)Cc4cc5ccccc5[nH]4)C(=O)O3)c2c1` (centres undefined) was 6310 nM; that for `COc1ccc2nccc(C3CN(C4CCN(Cc5ccc(Cl)cc5)CC4)C(=O)O3)c2c1` (centres undefined) was 631 nM.

Regarding `COc1ccc2nccc(C3CN(C4CCN(Cc5ccc(C)c(C)c5)CC4)C(=O)O3)c2c1` (centres undefined), the Selectivity ratio in [8] is 158. Moreover, the IC50 in [1] was 39.8 nM; in series [12], 6310 nM. As to `O=C1OC(c2ccnc3ccccc23)CN1C1CCN(Cc2cc3ccccc3[nH]2)CC1` (centres undefined), the 50% inhibitory concentration (IC50) in [1] is 1000 nM. With `COc1ccc2nccc(C3CN(C4CCN(Cc5cc6ccccc6[nH]5)C4)C(=O)O3)c2c1` (centres undefined), in series [1], the IC50 is over 50100 nM. Consider `O=C1OC(c2cccc3ccccc23)CN1C1CCN(Cc2cc3ccccc3[nH]2)CC1` (centres undefined), for which the IC50 in [1] was over 50100 nM. The same measure, in the same setting: the value for `COc1ccc2nccc(C3CN(C4CCN(Cc5ccc(Cl)c(Cl)c5)CC4)C(=O)O3)c2c1` (centres undefined) was 126 nM; that for `COc1ccc2nccc(C3CN(C4CCN(Cc5ccc(-c6ccccc6)cc5)CC4)C(=O)O3)c2c1` (centres undefined) was over 50100 nM.
